Experimental data reported in US11453671B2, “Pyrazolopyrimidine inhibitors of JAK kinases and uses thereof” (Genentech, Inc., priority 2020, dated 2022).
Like-named read-outs stand apart in the source and are kept apart here.

How the values were obtained:
[1] = molecular target: Recombinant human JAK2 kinase domain protein (Residues 812-1132) (Homo sapiens, UniProt O60674); test: JAK2 biochemical assay (microfluidic mobility shift, peptide phosphorylation); details: Enzyme JAK2 Ki (nM), 25 μM ATP, 0.2 nM total JAK2
Recombinant human JAK2 kinase domain protein (Residues 812-1132), sequence (O60674 812-1132): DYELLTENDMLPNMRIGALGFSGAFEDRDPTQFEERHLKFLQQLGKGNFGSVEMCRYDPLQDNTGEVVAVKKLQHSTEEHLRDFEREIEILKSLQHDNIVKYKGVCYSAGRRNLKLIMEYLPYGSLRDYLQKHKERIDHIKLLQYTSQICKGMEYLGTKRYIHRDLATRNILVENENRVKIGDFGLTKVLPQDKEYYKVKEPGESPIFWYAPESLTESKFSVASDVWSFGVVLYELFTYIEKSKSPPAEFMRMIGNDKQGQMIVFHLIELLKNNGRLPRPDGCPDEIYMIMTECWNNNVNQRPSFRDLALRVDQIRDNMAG
Procedure: The in vitro biochemical assays quantify JAK-catalyzed phosphorylation of a synthetic peptide, as detected using a LabChip® EZ Reader II microfluidic mobility shift instrument (PerkinElmer; Waltham, Mass.). […] Y-1B is fluorescently labeled on the N-terminus with 5-FAM (5-carboxyfluorescein) and contains a single tyrosine residue (Y) that can be phosphorylated by JAK activity. The substrate peptide stock is prepared in DMSO at 5 mM.
In each titration experiment, test compound was tested in duplicate at each of the twelve concentrations. Blank reactions contained ATP, peptide, and DMSO, but no JAK or test compound, whereas uninhibited control reactions contained ATP, peptide, JAK, and DMSO, but no test compound.
Peptide plus ATP mixture (24 μL) was added to 1 μL of test compound in DMSO (or DMSO alone). The reactions were initiated by adding 25 μL of JAK enzyme to the inhibitor/peptide/ATP mixture before thoroughly mixing the resultant solution. Reactions were incubated at room temperature (22° C.-23° C.) in a final volume of 50 μL per well in 384-well plates.
In each reaction, the residual Y-1B substrate and the phospho-peptide product generated were separated using the EZ Reader II instrument. Electrophoretic separation of molecules of product from molecules of substrate was achieved using downstream and upstream voltages of −500 and −2600 V, respectively, at an operating pressure of −1.3 psi.
The extent (or percent) of conversion of substrate to product was calculated from the corresponding peak heights in the electropherogram using HTS Well Analyzer software, Version 5.2 (PerkinElmer), and the following equation (Equation 1): % conversion=[P÷(S+P)]×100 Equation 1 where S and P represent the peak heights of the substrate and product, respectively. After any baseline signal from blank wells containing no JAK was subtracted from the signal of all test wells, the % conversion data were converted to fractional activity as shown in Equation 2, where vi and vo are the % conversion in the presence and absence of test compound, respectively.

[2] = system: JAK2 pathway: P-STAT5 in TF-1 human erythroleukemia cells + EPO; test: P-STAT5 TF-1+Erythropoietin (EPO) assay; format: cell-based; details: EPO stimulation, read-out: Cellular JAK2 PSTAT5 TF-l + EPO IC50
Procedure: (§1) TF-1 human erythroleukemia cells (ATCC®; Manassas, Va.; Catalog No. CRL-2003™) were grown in Roswell Park Memorial Institute (RPMI) medium supplemented with 10% heat-inactivated fetal bovine serum (FBS), 2 ng/mL granulocyte-macrophage colony-stimulating factor, 1×non-essential amino acids (NEAA), and 1 mM sodium pyruvate. The day before the assay, the cultures were transferred to Opti-MEM™, 1×NEAA, 1 mM sodium pyruvate, and 0.5% charcoal-stripped FBS (starve medium). Inhibitor stock solutions (5 mM in DMSO) were serially diluted 1:2 in DMSO to generate a 10-point concentration titration (at 500×test concentration), which was further diluted by a 50-fold dilution in Assay Medium (RPMI containing 1×NEAA and 1 mM sodium pyruvate) to generate a 10×concentration titration (in 2% DMSO). The cells (300,000 cells/well in 35 μL of Assay Medium) were seeded in 384-well Greiner plates. Diluted inhibitor at 10×concentration (5 μL) was added to the cells and the plates were incubated for 30 minutes at 37° C. in a humidified incubator. Cells were stimulated with the human recombinant cytokine at the respective EC90 concentrations, as previously determined for each individual lot. For the phosphorylated signal transducer and activator of transcription 6 (P-STAT6) TF-1+Interleukin-13 (IL-13) assay, 10 μL of 250 ng/mL IL-13 (R&D Systems; Minneapolis, Minn.) was added to the cells, which were then incubated for 10 minutes at 37° C. For the P-STAT5 TF-1+Erythropoietin (EPO) assay, 10 μL of 110 IU/mL EPO (Gibco Life Technologies, Catalog No. PHC2054) was added to the cells, which were then incubated for 30 min at 37° C. For both assays, the incubation was followed by addition to the cells of 5 μL of ice-cold 10× cell lysis buffer (Cell Signaling Technologies; Danvers, Mass.; Catalog No. 9803S) containing 1 mM phenylmethylsulfonyl fluoride (PMSF). Assay plates were frozen at −80° C. for a minimum of 1 horn. In the IL-13 assay, P-STAT6 was measured by coating goat anti-rabbit (GAR) plates (Meso Scale Discovery [MSD]; Rockville, Md.; Catalog No. MSD L21RA-1) with rabbit anti-human total STAT6 antibody (Cell Signaling Technologies; Catalog No. 9362S), incubating the cell lysates in the coated plates overnight at 4° C., and then detecting with mouse anti-P-STAT6 (Tyr641) Clone 16E12 antibody (MilliporeSigma; Burlington, Mass.; Catalog No. 05-590, custom labeled by MSD with SULFO-tag) using standard MSD plate processing, washing, and detection protocols. In the EPO assay, P-STAT5 was detected using the phospho-STAT5a,b Whole Cell Lysate Kit (MSD; Catalog No. K150IGD-1). The electrochemiluminescence (ECL) signal of wells was read on the MESO SECTOR S600 (MSD) reader.

[3] = system: JAK1: IL-13-stimulated STAT6 phosphorylation in BEAS-2B cells; test: P-STAT6 BEAS-2B+IL-13 Cell Assay; format: cell-based, human; details: IL-13 stimulation, read-out: Cellular JAK1 PSTAT6 BEAS2B + IL13 IC50
In short: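 BEAS-2B cells in BEGM preincubated 1 h at 37 °C with 10-point, 1:2 compound dilutions, then stimulated 15 min with IL-13 (250 ng/mL stock). Lysate pSTAT6 (Tyr641) captured on total-STAT6 antibody and read by MSD electrochemiluminescence; IC50 from four-parameter logistic fit.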

[4] = molecular target: T1, recombinant human JAK1 kinase domain protein (Residues 854-1154) (Homo sapiens, UniProt P23458); test: JAK1 biochemical assay (microfluidic mobility shift, peptide phosphorylation); details: 25 μM ATP, 1 nM total JAK1; read-out: Enzyme JAK1 Ki
T1 construct: human JAK1 kinase domain protein (Residues 854-1154); purchased Proteros Biostructures GmbH (Martinsried, Germany); host or cells: insect cells
T1 sequence (P23458 854-1154): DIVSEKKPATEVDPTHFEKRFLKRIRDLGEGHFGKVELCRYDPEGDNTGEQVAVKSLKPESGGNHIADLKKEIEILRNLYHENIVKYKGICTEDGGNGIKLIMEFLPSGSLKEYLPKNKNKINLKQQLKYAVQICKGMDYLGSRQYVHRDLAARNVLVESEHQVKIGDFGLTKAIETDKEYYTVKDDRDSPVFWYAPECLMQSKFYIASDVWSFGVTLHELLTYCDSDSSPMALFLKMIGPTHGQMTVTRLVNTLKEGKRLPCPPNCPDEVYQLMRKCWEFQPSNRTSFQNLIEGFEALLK
Text: JAK1 and JAK2 Biochemical Assays

[5] = system: JAK1 pathway: P-STAT6 in TF-1 human erythroleukemia cells + IL-13; test: P-STAT6 TF-1+Interleukin-13 (IL-13) assay; format: cell-based; details: Homo sapiens, TF-1, TF-1 cells, IL-13 stimulation; read-out: Cellular JAK1 PSTAT6 TF-1 + IL13 IC50
Procedure: as §1

[6] = Mouse lung tissue binding (equilibrium dialysis, RED); format: in vitro ADME; details: for Lung tissue binding, %: Table 5, sulfone-sulfide analog pairs; for Mouse LTB %: mouse lung tissue binding, % bound (Table 3)
Procedure: Mouse lung tissue binding. A high bound fraction or percentage of JAK1/JAK2 inhibitors to lung tissue may be undesirable since it can reduce the amount of free drug available to inhibit JAK1 or JAK2.
(a) Tissue binding experiments were performed in triplicate (n=3) using a Single-Use RED Plate by following the standard protocol. Initially, individual drugs were spiked to tissue homogenates (pH 7.4) to achieve a final concentration of 1 μM, and then 300 μL of drug-tissue homogenate mixtures were transferred to the donor wells of the RED plate which was pre-loaded with 500 μL phosphate buffer saline (133 mM) on the receiver wells. The RED plate was sealed with a gas permeable membrane and placed in a shaking incubator (450 rpm, VWR Symphony™) for 6 hr at 37° C. with 5% CO2. At the end of incubation, aliquots of 30 μL samples were taken out of the RED device and matrix equalized with an equal volume of tissue homogenates or buffer, and resulting samples were then immediately quenched with ice cold acetonitrile (sample:acetonitrile 1:4) containing either propranolol or labetalol as an internal standard. After shaking for 15 min at 500 rpm on a Thermo Scientific Compact Digital MicroPlate Shaker, all samples were then subjected to centrifugation at 3700 rpm for 15 min (Beckman Coulter Allegra X 12R) to remove plasma protein. Subsequently, supernatants were collected and then diluted with an equal volume of water prior to LC-MS/MS analysis.
(b) In an alternate procedure, the extent of lung tissue binding of test compound to mouse lung homogenate may also be determined by equilibrium dialysis using Pierce RED (rapid equilibrium dialysis) devices (Fisher Scientific 89811 & 89809). A 10 mM solution of compound in DMSO was prepared and diluted to 1 mM with DMSO. An aliquot of this 1 mM (4 μL) was added into lung homogenate (dilution factor of 1:9, lung tissue:potassium phosphate buffer (0.05 M, pH 7.4)) to give a final compound incubation concentration of 5 μM with solvent accounting for 0.5% (v/v) of the final incubation volume.
For each assay, the percentage lung tissue bound was determined in triplicate. Lung homogenate (200 μL) was loaded into one side of a RED device insert, in triplicate, and 350 μL of potassium phosphate buffer was loaded into the other side. The RED devices were sealed and incubated for 4 hours at ca. 37° C. on an orbital shaker (˜150 rpm).
Following incubation, an aliquot of lung homogenate (8 μL) and an aliquot of dialysate (72 μL) were matrix matched (lung homogenate with 72 μL phosphate buffer, dialysate with 8 μL lung homogenate) ahead of analysis. Protein was precipitated from the samples with the addition of 160 μL of acetonitrile containing internal standard. The same matrix matching and protein precipitation procedure was performed on lung homogenate aliquots sampled at the start of the experiment (t=0 min samples), for the assessment of the mass balance. The quenched samples were centrifuged (4000 rpm, 30 min, 4° C.) and the resultant supernatant diluted with water (3:1 (v/v), supernatant: water) and the samples analysed for parent compound by liquid chromatography mass spectrometry assay.
The unbound fraction (fu) in lung homogenate was determined from the ratio of the dialysate to homogenate peak area, corrected to take into account the lung homogenate dilution (D) to enable an estimate of whole lung tissue binding using the following equations: Undiluted fu=(1/D)/[((1/Apparent fu)−1)+(1/D)] Corrected fraction bound (%)=(1-undiluted fu)*100

Ki [1]	IC50 ([2]; Homo sapiens, TF-1, TF-1 cells)	Ki [4]	IC50 [5]	IC50 ([2]; TF-1 cells)	Lung tissue binding, % [6]	Mouse LTB % [6]	Structure (SMILES)	IC50 ([3]; Homo sapiens, BEAS-2B)	IC50 [3]
0.24 nM	21 nM	0.42 nM	2.6 nM	–	–	–	Cn1cc(NC(=O)c2cnn3cccnc23)c(-c2cc(S(=O)(=O)c3cccnc3)ccc2OC(F)F)n1 [Example 42, N-[3-[2-(difluoromethoxy)-5-(3-pyridylsulfonyl)phenyl]-1-methyl-pyrazol-4-yl]pyrazolo[1,5-a]pyrimidine-3-carboxamide]	30 nM	–
0.86 nM	32 nM	0.89 nM	24 nM	–	–	–	C[C@@H](Cn1cc(S(=O)(=O)c2ccc(OC(F)F)c(-c3nn(C)cc3NC(=O)c3cnn4cccnc34)c2)cn1)N(C)C [Example 58, N-[3-[2-(difluoromethoxy)-5-[1-[(2S)-2-(dimethylamino)propyl]pyrazol-4-yl]sulfonyl-phenyl]-1-methyl-pyrazol-4-yl]pyrazolo[1,5-a]pyrimidine-3-carboxamide]	40 nM	–
0.39 nM	–	0.52 nM	–	–	–	91.3%	CNCCn1cc(S(=O)(=O)c2ccc(OC(F)F)c(-c3nn(C)cc3NC(=O)c3cnn4cccnc34)c2)cn1 [Example 48, N-[3-[2-(difluoromethoxy)-5-[1-[2-(methylamino)ethyl]pyrazol-4-yl]sulfonyl-phenyl]-1-methyl-pyrazol-4-yl]pyrazolo[1,5-a]pyrimidine-3-carboxamide]	130 nM	–
0.77 nM	200 nM	0.81 nM	190 nM	–	–	–	CN1CC(n2cc(S(=O)(=O)c3ccc(OC(F)F)c(-c4nn(C)cc4NC(=O)c4cnn5cccnc45)c3)cn2)C1 [Example 61, N-[3-[2-(difluoromethoxy)-5-[1-(1-methylazetidin-3-yl)pyrazol-4-yl]sulfonyl-phenyl]-1-methyl-pyrazol-4-yl]pyrazolo[1,5-a]pyrimidine-3-carboxamide]	34 nM	–

More lines, now with the values behind:

Structure (SMILES)	Ki [1]	IC50 ([2]; Homo sapiens, TF-1, TF-1 cells)	Ki [4]	IC50 [5]	IC50 ([2]; TF-1 cells)	Lung tissue binding, % [6]	Mouse LTB % [6]	IC50 ([3]; Homo sapiens, BEAS-2B)	IC50 [3]
CN(C)CCn1cc(NC(=O)c2cnn3cccnc23)c(-c2cc(S(=O)(=O)C3CC3)ccc2OC(F)F)n1 [Example 50, N-[3-[5-cyclopropylsulfonyl-2-(difluoromethoxy)phenyl]-1-[2-(dimethylamino)ethyl]pyrazol-4-yl]pyrazolo[1,5-a]pyrimidine-3-carboxamide]	1.9 nM	160 nM	1.7 nM	27 nM	–	–	–	50 nM	–
Cn1cc(NC(=O)c2cnn3cccnc23)c(-c2cc(S(=O)(=O)C3CCCNC3)ccc2OC(F)F)n1 (single isomer, unassigned) [Example 36, N-[3-[2-(difluoromethoxy)-5-(3-piperidylsulfonyl)phenyl]-1-methyl-pyrazol-4-yl]pyrazolo[1,5-a]pyrimidine-3-carboxamide]	1.1 nM	–	1.8 nM	71 nM	120 nM	–	–	–	–
CSc1ccc(OC(F)F)c(-c2nn(CC#N)cc2NC(=O)c2cnn3cccnc23)c1 [reference compound]	–	–	–	–	–	96.9%	–	–	–
CN1CCC[C@@H]1Cn1cc(NC(=O)c2cnn3cccnc23)c(-c2cc(S(=O)(=O)C3CC3)ccc2OC(F)F)n1 (racemic) [Example 60, N-[3-[5-cyclopropylsulfonyl-2-(difluoromethoxy)phenyl]-1-[[rac-(2R)-1-methylpyrrolidin-2-yl]methyl]pyrazol-4-yl]pyrazolo[1,5-a]pyrimidine-3-carboxamide]	2.5 nM	170 nM	1.1 nM	24 nM	–	–	–	44 nM	–
CC(O)C(C)S(=O)(=O)c1ccc(OC(F)F)c(-c2nn(C)cc2NC(=O)c2cnn3cccnc23)c1 (single isomer, unassigned) [Example 69, N-[3-[2-(difluoromethoxy)-5-(2-hydroxy-1-methyl-propyl)sulfonyl-phenyl]-1-methyl-pyrazol-4-yl]pyrazolo[1,5-a]pyrimidine-3-carboxamide]	–	–	–	–	–	–	78.4%	–	77 nM
Cn1cc(Sc2ccc(OC(F)F)c(-c3nn(C)cc3NC(=O)c3cnn4cccnc34)c2)cn1 [reference compound]	–	–	–	–	–	97%	–	–	–
CC(C)S(=O)(=O)c1ccc(OC(F)F)c(-c2nn(C)cc2NC(=O)c2cnn3cccnc23)c1 [Example 1, N-[3-[2-(difluoromethoxy)-5-isopropylsulfonyl-phenyl]-1-methyl-pyrazol-4-yl]pyrazolo[1,5-a]pyrimidine-3-carboxamide]	0.25 nM	12 nM	0.56 nM	6.3 nM	–	–	–	31 nM	–
Cn1cc(NC(=O)c2cnn3cccnc23)c(-c2cc(SC3COC3)ccc2OC(F)F)n1 [reference compound]	–	–	–	–	–	97.4%	–	–	–
